pIC50: −log10 of the molar value. Inconclusive results are not listed. Active and inactive are the calls of the source. The rule behind the calls is not given here.
System: Mycobacterium tuberculosis non-replicating, growth inhibition
Test: growth inhibition of non-replicating M. tuberculosis (AID 488890)

SMILES	pIC50	IC50
O=C(Nc1ccc(-c2nc3ccccc3c(=O)o2)cc1)c1ccco1	6.46	–
CN1C(=O)CC(N2CCC(c3nc4ccccc4s3)CC2)C1=O (stereo unspecified)	–	32.6 µM (inactive)
CCOc1ccc(/C=N/OCC(=O)Nc2ccc3c(c2)OCO3)cc1	5.29	–
COc1cccc(C(=O)Nc2nnc(-c3ccc(F)cc3)o2)c1	5.09	–
COc1ccc(S(=O)(=O)N(C(C)=O)c2ccc(OC(C)=O)c3ccccc23)cc1[N+](=O)[O-]	–	13.6 µM (inactive)
COC(=O)COc1ccc2c(=O)c(Oc3ccccc3)c(C)oc2c1	5.77	–
CCOC(=O)COc1ccc2c(=O)c(-c3ccccc3)coc2c1	> 7.00	–
CCCCN(C)C(=O)c1cc2cc3ccc(OC)cc3nc2s1	5.22	–
CCn1c(/C=N/NC(=O)c2ccc(OC)cc2)nc2ccccc21	5.11	–
O=C(NC1=NCCS1)c1ccc(-c2ccc(Cl)cc2)o1	–	11.9 µM (inactive)
O=C(NCCC1=CCCCC1)c1coc(=O)c(Br)c1	–	23.7 µM (inactive)
CCOc1ccc(Nc2cc(C)nc(-n3nc(C)cc3C)n2)cc1	5.48	–
CC(C)Cn1c(N)c(C(=O)COC(=O)c2ccc([N+](=O)[O-])o2)c(=O)n(C)c1=O	5.54	–
Cc1cc(NCc2ccccn2)n2nc(C)c(-c3ccccc3)c2n1	5.74	–
CC1(c2nnc(-c3ccccc3)o2)CC(c2ccc(Cl)cc2)=NO1 (stereo unspecified)	5.82	–
COc1ccc(-c2nc3ccc(C)cc3c(=O)o2)cc1OC	5.53	–
CCOC(=O)c1nc2sc3c(c2c(=O)[nH]1)CCC(C)C3 (stereo unspecified)	> 7.00	–
CC(/C=C/c1ccc2c(c1)OCO2)=N/NC(=O)C1COc2ccccc2O1 (stereo unspecified)	5.34	–
O=C(/C=C/Nc1ccccc1O)c1ccco1	5.69	–
O=C(COc1ccc(Cl)cc1)OCC(=O)N1CCCc2ccccc21	–	12.9 µM (inactive)
COc1cccc2sc(Nc3nnc(-c4ccc(F)cc4)o3)nc12	5.57	–
Cc1nc2ccccc2n1/N=C/c1ccc([N+](=O)[O-])s1	6.49	–
Cc1cccc(OC(=O)c2ccc3nccnc3c2)c1	5.11	–
CCCCCn1c(=O)c2ccccc2n2c(CCl)nnc12	6.14	–

SMILES	pIC50	IC50
O=C(C/C=N\OCc1ccc([N+](=O)[O-])cc1)Nc1ccc(F)cc1F	5.04	–
O=C(Nc1nc(-c2ccccn2)cs1)c1ccco1	5.18	–
O=C(OCC(=O)C12CC3CC(CC(C3)C1)C2)c1ccccn1	5.03	–
CC(C)Oc1ccc(C(=O)CCN2CCCCC2)cc1	5.21	–
COc1cc(/C=C/c2ccc3c([N+](=O)[O-])cccc3n2)ccc1OCC(=O)O	5.75	–
CC(C)Cn1c(=O)c(C(=O)Nc2ccncc2)c(O)c2ccccc21	5.54	–
CCc1ccc(C2=C/C(=C/c3cccnc3)C(=O)O2)cc1	–	21.2 µM (inactive)
CN(C)c1ccc(NC(=O)COC(=O)c2cc(Cl)ccc2[N+](=O)[O-])cc1	5.05	–
Cc1cccc(NCCC(=O)c2ccc([N+](=O)[O-])cc2)c1C	5.45	–
O=c1cc(C(F)(F)F)[nH]c2c(C(F)(F)F)cccc12	5.24	–
CCCn1nnnc1NC(=O)c1cc(Cl)ccc1Cl	5.17	–
CCOc1cccc(CNCCc2c(C)[nH]c3ccc(OC(F)(F)F)cc23)c1O	5.01	–
O=C(COC(=O)CCc1c[nH]c2ccccc12)NCc1ccc2c(c1)OCO2	5.02	–
O=C1Nc2ccccc2/C1=C/C(=O)c1cccs1	–	13.4 µM (inactive)
O=C(CCNc1ccc(Cl)c(C(F)(F)F)c1)c1ccco1	5.25	–
Cc1cccc(-c2cc3nc(C)c(C)c(NCCCn4ccnc4)n3n2)c1	–	10.9 µM (inactive)
COc1cccc2cc(C(=O)NCc3ccc(F)cc3)c(=N)oc12	5.06	–
CCN1CCN(c2ccc(S(=O)(=O)N3CCCCC3)cc2NC(=O)c2ccc([N+](=O)[O-])o2)CC1	–	12.6 µM (inactive)
Cc1nc([N+](=O)[O-])c(Br)n1CC(=O)c1ccc(Cl)cc1	5.24	–
O=C(N/N=C/C=C/c1cccc([N+](=O)[O-])c1)c1ccncc1	–	24.8 µM (inactive)
CCCOc1ccc(N2CC(C(=O)Nc3ccccn3)CC2=O)cc1 (stereo unspecified)	–	10.9 µM (inactive)
O=C(N/N=C/c1cc([N+](=O)[O-])ccc1O)C1CCCCC1	5.71	–
Cc1ccc2nc(/N=C(\N)NC(=O)NC3CCCCC3)nc(C)c2c1	5.08	–
CC1CC(C)CN(C(=O)COC(=O)c2ccc([N+](=O)[O-])o2)C1 (stereo unspecified)	5.29	–

SMILES	pIC50	IC50
Cc1cccc(NC(=O)COC(=O)CCc2c[nH]c3ccccc23)c1	5.71	–
COc1cccc(COC(=O)c2sc3nc4n(c(=O)c3c2C)CCC4)c1OC	5.61	–
c1ccc(/N=C2\N=C(Nc3ccccn3)c3ccccc32)nc1	> 7.00	–
O=C(NCCC1CCCC1)c1cccs1	5.86	–
COC(=O)COc1ccc(-c2ccccc2)cc1C=O	5.05	–
COC(=O)CN(C#N)c1nc(SC)nc(N(C)C)n1	–	15.9 µM (inactive)
Cc1cccc(NCc2nnc(-c3ccccc3)o2)c1C	5.31	–
O=C(OCCCCN1C(=O)c2ccccc2C1=O)c1ccc(Br)o1	5.22	–
CC(Oc1ccc2ccccc2c1)C(=O)NNC(=S)NC(=O)c1ccco1 (stereo unspecified)	–	22.1 µM (inactive)
CCCC(=O)Nc1cccc(-c2nc3ccccc3c(=O)o2)c1	6.01	–
Cc1nc([N+](=O)[O-])c(Br)n1CC(=O)c1ccc2ccccc2c1	5.12	–
COc1cccc2cc(C(=O)c3ccc([N+](=O)[O-])cc3)oc12	5.22	–
CCCCCC1CC(CC(=O)NC(=S)Nc2ccc([N+](=O)[O-])cc2)C(=O)O1 (stereo unspecified)	5.18	–
COc1ccc(/C=C/c2cc(-c3ccc(C)cc3)o[n+]2C)cc1	5.33	–
O=C(OCC(=O)N1CCCC1)c1cc(Br)ccc1Cl	5.16	–
COc1ccc(NC(=O)C2COc3ccccc3O2)cc1 (stereo unspecified)	5.35	–
Cc1ccc2c(c1)c1c(n2CC(O)CNC2CCCCC2)CCCC1 (stereo unspecified)	–	16.7 µM (inactive)
COc1ccccc1N1CCN(C(=O)c2ccc([N+](=O)[O-])s2)CC1	5.22	–
Cc1ccc(-c2cc(C(F)(F)F)n3nc(C(=O)NCCCn4ccnc4)cc3n2)cc1C	–	14.1 µM (inactive)
CCCCCCCC(=O)N/N=C/c1ccc([N+](=O)[O-])o1	5.58	–
CC(C)(O)C#Cc1ccc(C(=O)Nc2ccc3c(c2)OCO3)s1	5.22	–
COc1cccc(NC(=O)c2ccc(Cn3cc([N+](=O)[O-])cn3)o2)c1	5.12	–
OCC1(CCOc2ccccc2)CCN(Cc2cc(Cl)ccc2O)CC1	–	24.1 µM (inactive)
O=C(N/N=C/c1ccc([N+](=O)[O-])s1)c1ccccc1	5.26	–

SMILES	pIC50	IC50
O=C(COc1ccc(Br)cc1)Nc1ccc([N+](=O)[O-])cn1	5.19	–
Cc1ccccc1-n1sc2cc(F)ccc2c1=O	5.01	–
COc1cc(/C=N/NC(=O)c2ccccn2)ccc1OC(=O)c1cccs1	5.55	–
O=c1oc2ccccc2c(Nc2ccccc2O)c1[N+](=O)[O-]	5.07	–
CCCc1cc(C(=O)Nc2cccc(C(C)=O)c2)no1	–	10.2 µM (inactive)
CC(C)(C)NCc1cc(Br)ccc1OC1CCCC1	5.10	–
CC(=O)Oc1c(-c2ccco2)oc2ccccc2c1=O	–	10.6 µM (inactive)
Cc1ccc2nc(NC(=O)COC(=O)c3ccc(Br)o3)sc2c1	–	35.8 µM (inactive)
CCCCn1c(O)c(/C=C2/C=CC=N2)c(=O)[nH]c1=O	5.93	–
CCCCNC(=O)N1CCc2ccccc2C1	5.30	–
O=c1[nH]c(=O)n(Cc2ccccc2Cl)c(O)c1/C=C1/C=CC=N1	6.60	–
Cc1nc(C(=O)NNC(=O)c2ccc(Cl)cc2)c(C(F)(F)F)o1	–	13.9 µM (inactive)
O=C(Nc1ncc2c(n1)-c1ccccc1OC2)c1ccc(F)cc1	5.36	–
Cc1cc2n(n1)SC(Nc1ccccc1)N2 (stereo unspecified)	–	26.7 µM (inactive)
O=[N+]([O-])c1ccc(N2CCCCCC2)c2nonc12	–	21.7 µM (inactive)
O=C(NCc1ccco1)c1nc2ccccc2s1	5.37	–
O=C(Nc1ccccn1)c1ccc([N+](=O)[O-])o1	6.11	–
COc1ccc(C(=O)N/N=C/c2cccc3cccnc23)cc1	5.16	–
Cc1ccccc1NC(=O)c1ccc([N+](=O)[O-])o1	5.15	–
CC(C)c1ccc(OCC(=O)NCc2ccccc2)cc1	–	19.2 µM (inactive)
N=C1S/C(=C\c2ccco2)C(=O)N1c1nccs1	5.52	–
CCN(CC)CCSc1nnc2c3cc(C)ccc3n(Cc3ccccc3)c2n1	–	14.3 µM (inactive)
COC(=O)c1sc(NC(=O)c2ccc([N+](=O)[O-])o2)c(C#N)c1C	5.37	–
O=C(OCC(=O)N1CCc2ccccc21)c1ccc([N+](=O)[O-])cc1	–	12.5 µM (inactive)

SMILES	pIC50	IC50
CCOC(=O)C1CCCc2c1[nH]c1c(C(N)=O)cccc21 (stereo unspecified)	5.00	–
CCc1nnc(NC(=O)c2cc3ccccc3oc2=O)s1	5.56	–
COc1ccc(OCCSc2nnc(Cc3cccc4ccccc34)n2N)cc1	–	23.6 µM (inactive)
O=[N+]([O-])c1cc(N=Nc2ccc3ccccc3c2)ccc1O	–	10.2 µM (inactive)
CC(C)NC(=O)C1COc2ccccc2O1 (stereo unspecified)	–	36.5 µM (inactive)
COc1ccc(N=Cc2nc(-c3ccccc3)oc2OC(C)=O)cc1	–	17.4 µM (inactive)
C/C(=N\NC(=O)c1c[nH]c2ccccc12)c1ccccn1	5.20	–
O=C(N/N=C/c1cc(Br)c(Br)s1)c1ccncc1	5.50	–
Cc1ccc2nc(N(CCCN(C)C)C(=O)c3ccc4c(c3)CCCC4)sc2c1	–	14.5 µM (inactive)
O=Cc1ccc(OC2OCCOC2Oc2ccc(C=O)cc2)cc1 (stereo unspecified)	–	14.2 µM (inactive)
O=C(Nc1ccc(N2CCN(C(=O)c3cccs3)CC2)cc1)c1ccc([N+](=O)[O-])o1	6.46	–
O=C(NC(=S)Nc1ccc(F)cc1)C1CCCCC1	6.15	–
CCCC(NCC(O)COc1ccc(-c2ccccc2)cc1)c1ccccc1 (stereo unspecified)	–	10.7 µM (inactive)
O=C(NNc1ccc([N+](=O)[O-])cc1)C1CC1c1ccccc1 (stereo unspecified)	5.05	–
CC1Cc2ccccc2N1C(=O)COC(=O)c1ccc(Cl)nc1 (stereo unspecified)	–	18.5 µM (inactive)
Cc1cc(C=C2C(=O)NC(=S)NC2=O)c(C)n1C1CCCC1	5.41	–
O=C(N/N=C1\CCCc2c1[nH]c1ccc(Cl)cc21)c1ccncc1	5.75	–
Cc1nc2ccc(NC(=O)c3ccc([N+](=O)[O-])cc3[N+](=O)[O-])cc2s1	5.10	–
CCOC(=O)c1csc(COc2ccccc2Cl)n1	5.80	–
O=C(NCc1cccs1)c1ccc(Br)o1	5.47	–

Reference: PubChem BioAssay AID488890 (Southern Research Specialized Biocontainment Screening …, 2010)
